Test results reported in patent publication US7683173B2, “Biphenyl compounds useful as muscarinic receptor antagonists” (Theravance, Inc., priority 2005, dated 2010).

Legend:
[1] = biological target: T1, M3 muscarinic receptor subtype (hM3) (Homo sapiens, UniProt P20309); assay: Radioligand binding assay ([3H]-NMS displacement); conditions: tested in this or a similar assay
T1 construct: expressed in transfected cells
Experimental: CHO cell lines stably expressing cloned human hM1, hM2, hM3 and hM4 muscarinic receptor subtypes, respectively, were grown to near confluency in medium consisting of HAM's F-12 supplemented with 10% FBS and 250 μg/mL Geneticin. The cells were grown in a 5% CO2, 37° C. incubator and lifted with 2 mM EDTA in dPBS. Cells were collected by 5 minute centrifugation at 650×g, and cell pellets were either stored frozen at −80° C. or membranes were prepared immediately. For membrane preparation, cell pellets were resuspended in lysis buffer and homogenized with a Polytron PT-2100 tissue disrupter (Kinematica AG; 20 seconds×2 bursts). Crude membranes were centrifuged at 40,000×g for 15 minutes at 4° C. […] The protein concentration of the membrane suspension was determined by the method described in Lowry, O. et al., Journal of Biochemistry 193:265 (1951). […]
Radioligand binding assays were performed in 96-well microtiter plates in a total assay volume of 100 μL. […] Filter plates were rinsed three times with wash buffer (10 mM HEPES) to remove unbound radioactivity. […] The plates were then counted in a PerkinElmer Topcount liquid scintillation counter (PerkinElmer Inc., Wellesley, Mass.). Binding data were analyzed by nonlinear regression analysis with the GraphPad Prism Software package (GraphPad Software, Inc., San Diego, Calif.) using the one-site competition model. […]

[2] = Dynamic moisture sorption assessment; assay type: physicochemical
Experimental: A dynamic moisture sorption (DMS) assessment (also known as a moisture sorption-desorption profile) was performed for samples of the crystalline monopropionate salt using a VTI atmospheric microbalance, SGA-100 system (VTI Corp., Hialeah, Fla. 33016). A sample size of approximately 10 mg was used and the humidity was set at the ambient value at the start of the analysis. A typical DMS analysis consisted of three scans: ambient to 2% relative humidity (RH), 2% RH to 90% RH, 90% RH to 5% RH at a scan rate of 5% RH/step. The mass was measured every two minutes and the RH was changed to the next value (+/−5% RH) when the mass of the sample was stable to within 0.01% for 5 consecutive points.

[3] = Thermal analysis (DSC); assay type: physicochemical; conditions: DSC trace
Experimental: Differential scanning calorimetry (DSC) was performed using a TA Instruments Model Q-10 module with a Thermal Analyst controller. Data were collected and analyzed using TA Instruments Thermal Solutions software. A sample of about 1 mg was accurately weighed into an aluminum pan with lid. The sample was evaluated using a linear heating ramp of 10° C./min from ambient temperature to approximately 300° C. The DSC cell was purged with dry nitrogen during use.

T1 sequence (P20309 whole entry): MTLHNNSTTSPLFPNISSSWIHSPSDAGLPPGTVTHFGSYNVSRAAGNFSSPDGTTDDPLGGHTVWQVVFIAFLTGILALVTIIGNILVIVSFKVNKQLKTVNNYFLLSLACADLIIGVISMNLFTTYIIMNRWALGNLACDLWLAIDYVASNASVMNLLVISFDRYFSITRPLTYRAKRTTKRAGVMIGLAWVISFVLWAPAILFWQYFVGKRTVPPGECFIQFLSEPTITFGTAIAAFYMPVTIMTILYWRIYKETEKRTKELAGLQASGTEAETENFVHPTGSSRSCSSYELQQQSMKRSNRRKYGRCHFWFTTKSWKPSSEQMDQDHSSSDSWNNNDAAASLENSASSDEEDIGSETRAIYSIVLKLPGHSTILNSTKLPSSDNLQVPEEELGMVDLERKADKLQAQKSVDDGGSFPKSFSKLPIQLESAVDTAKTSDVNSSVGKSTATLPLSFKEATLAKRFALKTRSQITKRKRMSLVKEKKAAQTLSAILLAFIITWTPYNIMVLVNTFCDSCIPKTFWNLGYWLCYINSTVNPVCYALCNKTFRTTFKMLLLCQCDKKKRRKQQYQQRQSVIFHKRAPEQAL

SMILES: O=C(Nc1ccccc1-c1ccccc1)OC1CCN(CCCN2CCN(CCCNCc3ccc(O)cc3)C2=O)CC1 [Example 1, Biphenyl-2-ylcarbamic Acid 1-(3-{3-[3-(4-Hydroxybenzylamino)propyl]-2-oxoimidazolidin-1-yl}propyl)piperidin-4-yl Ester]
- Ki [1]: < 5 nM

SMILES: CCC(=O)O.O=C(Nc1ccccc1-c1ccccc1)OC1CCN(CCCN2CCN(CCCNCc3ccc(O)cc3)C2=O)CC1 [Example 2, Monopropionate Crystalline Salt of Biphenyl-2-ylcarbamic Acid 1-(3-{3-[3-(4-Hydroxybenzylamino)propyl]-2-oxoimidazolidin-1-yl}propyl)piperidin-4-yl Ester]
- hygroscopicity (sorption/desorption profile) ([2]; DMS trace): low hygroscopicity
- weight gain ([2]; humidity range of 40-70% RH, micronized material): 1.0%
- weight gain ([2]; humidity range of 40-70% RH, unmicronized): 0.7%
- weight gain ([2]; humidity range of 40-75% RH): 0.3%
- thermal stability [3]: good thermal stability
